“Also recorded” adds a separate entry of the source.
How the values were obtained:
[1] = system: adult ADD patients with vasospasm; assay: Attention Deficit Disorder siblings treated with vasodilators, serial TCD and neuropsychological testing; format: in vivo, human patients; settings: male; for right MCA mean flow velocity: baseline 0.86; for left MCA mean flow velocity: baseline 0.92
Procedure: Both were administered a battery of tests which measured neuropsychological functioning and personality variables.
On referral for neurological evaluation, mild physical and significant objective testing abnormalities were found. […] Both, further, had difficulty performing a Tandem Gait with complete ease. The physical exam was otherwise normal. An EEG and computerized EEG were performed and were abnormal.
Both individuals were treated with vasodilating medications for 10 months and received psychotherapy and vocational counseling. Relaxation and hypnotherapy were also used to develop visualization skills for both recall of successful social and work experiences and to visualize successful outcomes of activities to do.
In serial testing, the […] underwent TCD's on three separate occasions on the same day. […] By the end of the day, […] identified that […] could read, understand and retain news articles and magazine articles. […] could also follow a television show throughout. […] could do neither at the beginning of the day.
On the basis of the objective disorders of flow and the patient's reported and observed improvement during the trial episode of administering medications to decrease the observed vasospasm, we started the sibling on vasodilators. […] This regimen was made up of a low dose Calcium Channel Blocker, and an ACE inhibitor along with low dose Nitroglycerine and a Clonidine patch.

[2] = system: patients with cerebral vasospasm; assay: Vasoactive medications tried on Applicant's patients with vasospasm, monitored by Transcranial Doppler (TCD), exam and symptoms
Source text: As headache was a major complaint of many of Applicant's patients, we tried these medications out including Imitrex (Sumatriptan), IM Toradol (Ketoralac) and other medications under direct monitoring. […] Rather, it was expected that one or another set of medications might help point the way into using specific classes of medications or approaches. Accordingly, each of these patients. equivalent of a large number of patients, were monitored continuously across the day.
With respect to the different monitoring tools, some were more helpful than others. […] The Brain Stem Auditory Evoked Response and other evoked potential tests were very insensitive tools for monitoring, because of the length of time required to perform the test after short-acting medications were given in IM or sublingual or nasal spray administration route. […] These symptoms included not only headache, but also sensations of confusion, balance disorder, abnormal Romberg or Tandem Gait of other neurological abnormalities.
As headache was a major complaint of many of these patients, Applicant tried these medications out including Imitrex (Sumatriptan), IM Toradol (Ketoralac) and other medications under direct monitoring. […] Rather, it was expected that one or another set of medications might help point the way into using specific classes of medications or approaches. Accordingly, each of these patients, equivalent of a large number of patients, is monitored continuously across the day.
With respect to the different monitoring tools, some were more helpful than others. […] The Brain Stem Auditory Evoked Response and other evoked potential tests were very insensitive tools for monitoring, because of the length of time required to perform the test after short-acting medications were given in IM or sublingual or nasal spray administration route.

[3] = system: migraine patients with vasospasm on TCD; assay: Migraine patients treated with Nitroglycerine patches, TCD and neurological exam; format: in vivo, human patients
Procedure: All patients are evaluated with a complete history, physical exam, and neurological exam by a Board Certified Neurologist. All patients have blood work consisting of a CBC with differential count and platelets as well as an SMA-30 obtained. All whiplash related patients underwent a CT or MRI of the brain, EEG and qEEG, B-mode and spectral analysis ultrasound of the subclavian, carotid, and vertebral circulation, and Transcranial Doppler (TCD) examination of the intracranial circulation. In some situations, repetitive Transcranial Doppler examinations are performed on the same patient in the same day. Initially, these tests are performed by maintaining the probe on the patient's head through the course of several hours, but later the technique involves using the same probe, patient position, technician, depth, and cranial window with serial but interrupted exams across the course of the day. In all cases, the highest spectral frequencies are recorded, as well as repeat exams at the same depth and window as the baseline pre-medication windows were obtained. Immediately prior to initial TCD exams, a neurological exam is carried out. At the time of initiation of treatment for the cerebral vasospasm, at which time vasoactive medications are administered after the baseline TCD and neuro exam are obtained, repeat TCD exams are carried out and when medication effects on the intracranial circulation were identified, repeat neurological exams are obtained. In 5 patients, P300 are obtained prior to initiation of treatment and, again, several months later. The same methodology is used in those patients referred for evaluation of possible MS-like syndrome as recognized in the recent global settlement. With these patients, triple evoked potentials, EEG and qEEG, and a vascular evaluation as outlined above is carried out in all patients, and in 11 who decided to attempt treatment with vasoactive drugs, the methodology outlined above for initiation of as in the MVA-related post-concussion syndrome are used. 10 of the 19 MS-like syndrome patients additionally had brain MRI tests performed. […]

[4] = system: patient with migraine, schizophrenic reaction and vasospasm; assay: Case study: psychosis caused by cerebral ischemia, EEG and TCD; format: in vivo, human patient; settings: single patient
[5] = second TCD of the day after repetitive applications
[6] = third TCD of the day after repetitive applications
[7] = human, in vivo, listed as Nitroglycerine

With `O=[N+]([O-])OCC(CO[N+](=O)[O-])O[N+](=O)[O-]` [Nitroglycerin] the “concentration (self-assessment)” value ([1]; same day serial testing) was “significant improvement in concentration”, the “neurological exam (balance testing)” value ([1]; same day serial testing) was “exam progressively normalized” and the “right MCA mean flow velocity” value [1, 5] was 0.79 meters/second. The “left MCA mean flow velocity” value [1, 5] was 0.84 meters/second, the “right MCA mean flow velocity” value [1, 6] was 0.72 meters/second and the “left MCA mean flow velocity” value [1, 6] was 0.79 meters/second. For the same molecule, the “effect on vessels seen on TCD / ultrasound (vasoconstriction or dilatation)” value ([2]; human, in vivo) was “resulted in vascular dilatation”, the headache ([2]; human, in vivo) was “improvement in the patient's headache” and the “neurological exam and other neurological abnormalities” value ([2]; human, in vivo) was “improvement of any other neurological abnormalities”. For the same molecule, the headache [2, 7] was “alleviated or treated the headache”, the “neurological exam and other neurological abnormalities” value [2, 7] was “clinical and neurological exam improvement” and the “transient supersensitivity (transient worsening of the vasospasm) on early administration” value ([2]; witnessed on TCD or clinically) was “can give transient severe vasoconstrictive episodes”. For the same molecule, the “follow-up TCD at the end of application of the patch” value ([3]; 3 patients) was “confirmed reduction of the vasospasm”, the “lower extremity hyper-reflexia, Rhomberg and tandem gait abnormalities” value ([3]; human, in vivo) was “all resolved” and the headache ([3]; patches applied for 10 minutes to 1 hour, 5 patients) was “headache resolved”. For the same molecule, the headaches / migraines [4] was “complete resolution of their daily headaches; also recorded: headaches completely resolved as did memory disturbances, concentration problems and emotional lability; also recorded: responded promptly”.

From patent US20020188202A1, “Method of diagnosis and treatment and related compositions and apparatus” (priority 1996, published 2002)
